Measured values as given in patent US20240299387A1, “HETEROCYCLIC EGFR INHIBITORS FOR USE IN THE TREATMENT OF CANCER” (Blueprint Medicines Corporation, priority 2021, published 2024).
Like-named read-outs stand apart in the source and are kept apart here.

Tests used:
EGFR (L858R T790M C797S) = target: T1, EGFR (L858R T790M C797S) (Homo sapiens, UniProt P00533, C797S/L858R/T790M); test: Biochemical EGFR inhibition assay (Caliper mobility shift), EGFR LRTMCS mutant
T1 construct: purchased SignalChem E10-122VG
Protocol: Reactions proceeded until between 10% to 20% total peptides were phosphorylated at room temperature (25° C.) and were terminated with 35 mM 2,2′,2″,2′″-(ethane-1,2-diyldinitrilo)tetraacetic acid (EDTA). Product was detected using the Caliper mobility shift detection method where the phosphorylated peptide (product) and substrate were electrophoretically separated and measured. Percent activity was plotted against log concentration of compound and points to generate an apparent IC50.

[1] = target: T2, EGFR L858R T790M in NCI-H1975 cell line (Homo sapiens, UniProt P00533, L858R/T790M); test: NCI-H1975 pEGFR AlphaLISA assay; type: cell-based; conditions: NCI-H1975 cells (EGFR L858R T790M), p-EGFR (Tyr1068), 4-5 hours incubation; read-out: Ext pEGFR H1975 GMean IC50 (nM) Protocol: @Pharmaron AlphaLISA (Num)
T2 construct: host or cells: NCI-H1975
Protocol: The NCI-H1975 cells were seeded at 12.5K/well in 22 μL into 384 well opti plate (PerkinElmer, 6007299) and adhering overnight at 37C/5% CO2. On the next day, the test compounds and DMSO control were added into H1975 cell plate followed by incubation at 37C/5% CO2 for 4-5 hours. […] Then 5 μL of a donor bead mix was added to each well followed by overnight incubation at room temperature in dark. On the next day, the plate was read at a compatible plate reader to obtain pEGFR signal. Percent of pEGFR inhibition was plotted against log concentration of compounds to generate IC50 values.

[2] = LRTMCS (PH) IC50 (nM) @ 1 mM ATP (Num)

T1 sequence (P00533 25-1210 T790M/C797S/L858R): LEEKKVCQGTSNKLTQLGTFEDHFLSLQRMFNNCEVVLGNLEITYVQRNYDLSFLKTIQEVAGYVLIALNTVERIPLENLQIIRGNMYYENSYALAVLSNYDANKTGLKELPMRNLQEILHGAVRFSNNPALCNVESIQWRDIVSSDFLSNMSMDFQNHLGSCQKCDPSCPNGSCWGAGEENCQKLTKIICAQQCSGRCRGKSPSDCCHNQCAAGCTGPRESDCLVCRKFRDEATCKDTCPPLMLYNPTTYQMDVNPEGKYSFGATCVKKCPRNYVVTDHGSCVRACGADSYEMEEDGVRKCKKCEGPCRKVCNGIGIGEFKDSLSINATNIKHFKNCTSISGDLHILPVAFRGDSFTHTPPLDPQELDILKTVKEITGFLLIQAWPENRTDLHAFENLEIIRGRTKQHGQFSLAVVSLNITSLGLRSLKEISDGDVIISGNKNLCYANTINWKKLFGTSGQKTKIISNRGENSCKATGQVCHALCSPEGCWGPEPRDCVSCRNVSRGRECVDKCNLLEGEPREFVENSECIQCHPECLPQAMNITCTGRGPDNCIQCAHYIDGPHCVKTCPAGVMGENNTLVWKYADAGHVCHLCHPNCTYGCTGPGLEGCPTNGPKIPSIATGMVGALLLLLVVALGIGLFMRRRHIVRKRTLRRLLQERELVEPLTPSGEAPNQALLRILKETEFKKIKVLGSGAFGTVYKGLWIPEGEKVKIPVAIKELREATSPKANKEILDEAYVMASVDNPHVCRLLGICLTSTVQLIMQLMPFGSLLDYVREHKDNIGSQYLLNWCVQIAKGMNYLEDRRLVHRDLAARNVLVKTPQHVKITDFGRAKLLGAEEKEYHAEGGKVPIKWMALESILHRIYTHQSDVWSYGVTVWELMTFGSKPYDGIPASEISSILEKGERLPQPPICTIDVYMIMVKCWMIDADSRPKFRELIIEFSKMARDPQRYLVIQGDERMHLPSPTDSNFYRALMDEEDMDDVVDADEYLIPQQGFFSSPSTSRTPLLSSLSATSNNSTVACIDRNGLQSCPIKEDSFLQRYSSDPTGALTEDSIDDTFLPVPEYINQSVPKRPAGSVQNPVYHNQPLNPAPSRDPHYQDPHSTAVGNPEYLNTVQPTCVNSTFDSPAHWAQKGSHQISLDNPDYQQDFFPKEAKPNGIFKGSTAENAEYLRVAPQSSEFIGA
T2 sequence (P00533 25-1210 T790M/L858R): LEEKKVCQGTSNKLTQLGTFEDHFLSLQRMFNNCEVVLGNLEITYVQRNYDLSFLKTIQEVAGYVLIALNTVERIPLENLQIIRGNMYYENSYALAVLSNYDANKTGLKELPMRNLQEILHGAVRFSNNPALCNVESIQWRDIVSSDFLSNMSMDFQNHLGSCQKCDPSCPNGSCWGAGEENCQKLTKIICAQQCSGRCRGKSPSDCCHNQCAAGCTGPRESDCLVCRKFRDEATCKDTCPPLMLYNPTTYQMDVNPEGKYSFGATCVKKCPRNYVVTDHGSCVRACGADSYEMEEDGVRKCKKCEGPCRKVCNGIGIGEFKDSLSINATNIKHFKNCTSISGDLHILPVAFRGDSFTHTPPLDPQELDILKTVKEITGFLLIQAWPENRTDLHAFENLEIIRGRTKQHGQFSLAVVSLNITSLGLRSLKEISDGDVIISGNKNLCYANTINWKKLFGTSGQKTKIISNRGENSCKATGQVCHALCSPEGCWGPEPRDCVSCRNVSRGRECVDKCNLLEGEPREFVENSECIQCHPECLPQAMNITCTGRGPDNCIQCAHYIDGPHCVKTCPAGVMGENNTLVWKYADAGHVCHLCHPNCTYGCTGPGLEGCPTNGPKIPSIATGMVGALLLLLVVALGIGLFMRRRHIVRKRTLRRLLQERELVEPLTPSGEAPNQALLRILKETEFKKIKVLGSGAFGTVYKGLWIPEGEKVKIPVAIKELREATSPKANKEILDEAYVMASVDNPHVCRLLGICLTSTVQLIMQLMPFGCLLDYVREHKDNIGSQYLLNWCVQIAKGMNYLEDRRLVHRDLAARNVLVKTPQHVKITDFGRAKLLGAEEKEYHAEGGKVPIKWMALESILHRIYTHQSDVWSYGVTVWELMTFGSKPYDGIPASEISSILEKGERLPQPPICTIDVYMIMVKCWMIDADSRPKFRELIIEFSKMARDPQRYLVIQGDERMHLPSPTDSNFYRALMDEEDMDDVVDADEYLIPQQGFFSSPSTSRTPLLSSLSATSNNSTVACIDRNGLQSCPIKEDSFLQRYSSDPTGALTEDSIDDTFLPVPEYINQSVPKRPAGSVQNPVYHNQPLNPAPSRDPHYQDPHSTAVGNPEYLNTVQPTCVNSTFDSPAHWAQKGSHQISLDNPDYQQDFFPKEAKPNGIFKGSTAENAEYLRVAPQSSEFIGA

Compound `CC(C)c1cnc(N(C)C)c2cnc(Nc3ccnc(N4CC[C@@H](O)[C@@H](F)C4)n3)cc12` [Example 94, (3S,4R)-1-(4-((8-(dimethylamino)-5-isopropyl-2,7-naphthyridin-3-yl)amino)pyrimidin-2-yl)-3-fluoropiperidin-4-ol] has an IC50 (EGFR (L858R T790M C797S); [2]) of 30 to 100 nM and an IC50 [1] of over 50 nM.

With `CC(=O)N1CC([C@@H](C)Oc2ccc(C(C)C)c3cc(Nc4ccnc(N5CC[C@@H](O)[C@@](C)(F)C5)n4)ncc23)C1` (single isomer, unassigned) [Example 24, 1-(3-((R)-1-((3-((2-((3S,4R)-3-fluoro-4-hydroxy-3-methylpiperidin-1-yl)pyrimidin-4-yl)amino)-5-isopropylisoquinolin-8-yl)oxy)ethyl)azetidin-1-yl)ethan-1-one or 1-(3-((S)-1-((3-((2-((3S,4R)-3-fluoro-4-hydroxy-3-methylpiperidin-1-yl)pyrimidin-4-yl)amino)-5-isopropylisoquinolin-8-yl)oxy)ethyl)azetidin-1-yl)ethan-1-one] the IC50 (EGFR (L858R T790M C797S); [2]) was under 15 nM and the IC50 [1] was under 10 nM.

With `CC(C)c1ccc(OCCn2ccnc2)c2cnc(Nc3ccnc(N4CC[C@](C)(O)[C@H](F)C4)n3)cc12` [Example 29, (3R,4S)-1-(4-((8-(2-(1H-imidazol-1-yl)ethoxy)-5-isopropylisoquinolin-3-yl)amino)pyrimidin-2-yl)-3-fluoro-4-methylpiperidin-4-ol] the IC50 (EGFR (L858R T790M C797S); [2]) was under 15 nM and the IC50 [1] was 20 to 30 nM.

`CC(=O)N1CC(COc2ccc(C(C)C)c3cc(Nc4ccnc(N5CC[C@@](C)(O)[C@@H](F)C5)n4)ncc23)C1` [Example 11, 1-(3-(((3-((2-((3S,4R)-3-fluoro-4-hydroxy-4-methylpiperidin-1-yl)pyrimidin-4-yl)amino)-5-isopropylisoquinolin-8-yl)oxy)methyl)azetidin-1-yl)ethanone] showed an IC50 (EGFR (L858R T790M C797S); [2]) of 20 to 30 nM and an IC50 [1] of over 50 nM.

Work on `[2H]C([2H])([2H])O[C@@H]1CCN(c2nccc(Nc3cc4c(C(C)C)ccc(OC[C@H]5CCC(=O)N5C)c4cn3)n2)C[C@@H]1F` [Example 47, (R)-5-(((3-((2-((3S,4R)-3-fluoro-4-(methoxy-d3)piperidin-1-yl)pyrimidin-4-yl)amino)-5-isopropylisoquinolin-8-yl)oxy)methyl)-1-methylpyrrolidin-2-one] yielded an IC50 (EGFR (L858R T790M C797S); [2]) of 15 to 20 nM and an IC50 [1] of over 50 nM.

Work on `CC(C)c1ccc(OCCn2ccnc2)c2cnc(Nc3ccnc(N4CC[C@@](C)(O)[C@@H](F)C4)n3)cc12` [Example 12, (3S,4R)-1-(4-((8-(2-(1H-imidazol-1-yl)ethoxy)-5-isopropylisoquinolin-3-yl)amino)pyrimidin-2-yl)-3-fluoro-4-methylpiperidin-4-ol] yielded an IC50 (EGFR (L858R T790M C797S); [2]) of under 15 nM and an IC50 [1] of over 50 nM.

For `CC(C)c1ccc(OCCn2ccnc2)c2cnc(Nc3ccnc(N4CCC(C)(O)CC4)n3)cc12` [Example 17, 1-(4-((8-(2-(1H-imidazol-1-yl)ethoxy)-5-isopropylisoquinolin-3-yl)amino)pyrimidin-2-yl)-4-methylpiperidin-4-ol], the IC50 (EGFR (L858R T790M C797S); [2]) was under 15 nM and the IC50 [1] was over 50 nM.

For `CO[C@H]1C[C@H](NC(=O)c2ncc(C(C)C)c3cc(Nc4ccnc(N5CC[C@@H](O)[C@@](C)(F)C5)n4)ncc23)C1` [Example 74, 6-((2-((3S,4R)-3-fluoro-4-hydroxy-3-methylpiperidin-1-yl)pyrimidin-4-yl)amino)-4-isopropyl-N-((1r,3r)-3-methoxycyclobutyl)-2,7-naphthyridine-1-carboxamide], the IC50 (EGFR (L858R T790M C797S); [2]) was under 15 nM and the IC50 [1] was 20 to 30 nM.

In the case of `CC(=O)N1CC(COc2cccc3cc(Nc4ccnc(N5C[C@@H](F)[C@@H](O)C(C)(C)C5)n4)ncc23)C1` (single isomer, unassigned) [Example 42, 1-(3-(((3-((2-((4S,5R)-5-fluoro-4-hydroxy-3,3-dimethylpiperidin-1-yl)pyrimidin-4-yl)amino)isoquinolin-8-yl)oxy)methyl)azetidin-1-yl)ethenone or 1-(3-(((3-((2-((4R,5S)-5-fluoro-4-hydroxy-3,3-dimethylpiperidin-1-yl)pyrimidin-4-yl)amino)isoquinolin-8-yl)oxy)methyl)azetidin-1-yl)ethenone], the IC50 (EGFR (L858R T790M C797S); [2]) is reported as 20 to 30 nM and the IC50 [1] is reported as over 50 nM.

`CC(C)c1cnc(C(=O)N[C@H]2C[C@H](O)C2)c2cnc(Nc3ccnc(N4CC[C@@H](O)[C@@](C)(F)C4)n3)cc12` [Example 79, 6-((2-((3S,4R)-3-fluoro-4-hydroxy-3-methylpiperidin-1-yl)pyrimidin-4-yl)amino)-N-((1r,3r)-3-hydroxycyclobutyl)-4-isopropyl-2,7-naphthyridine-1-carboxamide] showed an IC50 (EGFR (L858R T790M C797S); [2]) of under 15 nM and an IC50 [1] of 30 to 50 nM.

With `CC(C)c1cnc(C(=O)NCCF)c2cnc(Nc3ccnc(N4CC[C@@H](O)[C@@](C)(F)C4)n3)cc12` [Example 62, 6-((2-((3S,4R)-3-fluoro-4-hydroxy-3-methylpiperidin-1-yl)pyrimidin-4-yl)amino)-N-(2-fluoroethyl)-4-isopropyl-2,7-naphthyridine-1-carboxamide] the IC50 (EGFR (L858R T790M C797S); [2]) was under 15 nM and the IC50 [1] was over 50 nM.

Compound `CC(=O)N1CC(COc2ccc(C(C)C)c3cc(Nc4ccnc(N5CCC(C)(O)CC5)n4)ncc23)C1` [Example 14, 1-(3-(((3-((2-(4-hydroxy-4-methylpiperidin-1-yl)pyrimidin-4-yl)amino)-5-isopropylisoquinolin-8-yl)oxy)methyl)azetidin-1-yl)ethanone] has an IC50 (EGFR (L858R T790M C797S); [2]) of 20 to 30 nM and an IC50 [1] of over 50 nM.

Compound `CC(C)c1cnc(NC[C@H](C)N(C)C)c2cnc(Nc3ccnc(N4CC[C@@H](O)[C@@](C)(F)C4)n3)cc12` (single isomer, unassigned) [Example 4, (3S,4R)-1-(4-((8-(((S)-2-(dimethylamino)propyl)amino)-5-isopropyl-2,7-naphthyridin-3-yl)amino)pyrimidin-2-yl)-3-fluoro-3-methylpiperidin-4-ol or (3S,4R)-1-(4-((8-(((R)-2-(dimethylamino)propyl)amino)-5-isopropyl-2,7-naphthyridin-3-yl)amino)pyrimidin-2-yl)-3-fluoro-3-methylpiperidin-4-ol] has an IC50 (EGFR (L858R T790M C797S); [2]) of 30 to 100 nM and an IC50 [1] of over 50 nM.

`CNc1ccc(C(C)C)c2cc(Nc3ccnc(N4CC[C@@H](O)[C@@](C)(F)C4)n3)ncc12` [Example 91, (3S,4R)-3-fluoro-1-(4-((5-isopropyl-8-(methylamino)isoquinolin-3-yl)amino)pyrimidin-2-yl)-3-methylpiperidin-4-ol] showed an IC50 (EGFR (L858R T790M C797S); [2]) of under 15 nM and an IC50 [1] of 20 to 30 nM.

`CC(C)c1ccc(OC[C@H]2COC(=O)N2C)c2cnc(Nc3ccnc(N4CC[C@@](C)(O)[C@@H](F)C4)n3)cc12` (single isomer, unassigned) [Example 22] gave an IC50 (EGFR (L858R T790M C797S); [2]) of 15 to 20 nM and an IC50 [1] of over 50 nM.

`CNc1ncc(C(C)C)c2cc(Nc3ccnc(N4CC[C@@H](O)[C@@H](F)C4)n3)ncc12` [Example 92, (3S,4R)-3-fluoro-1-(4-((5-isopropyl-8-(methylamino)-2,7-naphthyridin-3-yl)amino)pyrimidin-2-yl)piperidin-4-ol] was tested, and the IC50 (EGFR (L858R T790M C797S); [2]) was 30 to 100 nM and the IC50 [1] was over 50 nM.

In the case of `CC(C)c1ccc(OCC2CCc3cncn32)c2cnc(Nc3ccnc(N4CCC(C)(O)CC4)n3)cc12` (centres unmarked) [Example 18, 1-(4-((8-((6,7-dihydro-5Hpyrrolo[1,2-c]imidazol-5-yl)methoxy)-5-isopropylisoquinolin-3-yl)amino)pyrimidin-2-yl)-4-methylpiperidin-4-ol], the IC50 (EGFR (L858R T790M C797S); [2]) is reported as under 15 nM and the IC50 [1] is reported as 20 to 30 nM.

Compound `CC(C)c1ccc(OCCn2cnnc2)c2cnc(Nc3ccnc(N4CC[C@@](C)(O)[C@@H](F)C4)n3)cc12` [Example 28, (3S,4R)-1-(4-((8-(2-(4H-1,2,4-triazol-4-yl)ethoxy)-5-isopropylisoquinolin-3-yl)amino)pyrimidin-2-yl)-3-fluoro-4-methylpiperidin-4-ol] has an IC50 (EGFR (L858R T790M C797S); [2]) of under 15 nM and an IC50 [1] of 20 to 30 nM.

For `CC(C)c1ccc(OC[C@@H]2CC(=O)N(C)C2)c2cnc(Nc3ccnc(N4CC[C@@H](O)[C@@](C)(F)C4)n3)cc12` (single isomer, unassigned) [Example 21], the IC50 (EGFR (L858R T790M C797S); read-out: LRTMCS (PH) IC50 (nM) @ 1 mM ATP (Num)) was under 15 nM and the IC50 [1] was under 10 nM.

Compound `CC(C)c1ccc(OCCn2cncn2)c2cnc(Nc3ccnc(N4CCC(C)(O)CC4)n3)cc12` [Example 15, 1-(4-((8-(2-(1H-1,2,4-triazol-1-yl)ethoxy)-5-isopropylisoquinolin-3-yl)amino)pyrimidin-2-yl)-4-methylpiperidin-4-ol] has an IC50 (EGFR (L858R T790M C797S); [2]) of under 15 nM and an IC50 [1] of 30 to 50 nM.

Work on `CC(C)c1ccc(OCc2cnn(C)c2)c2cnc(Nc3ccnc(N4CC[C@@H](O)[C@@](C)(F)C4)n3)cc12` [Example 9, (3S,4R)-3-fluoro-1-(4-((5-isopropyl-8-((1-methyl-1H-pyrazol-4-yl)methoxy)isoquinolin-3-yl)amino)pyrimidin-2-yl)-3-methylpiperidin-4-ol] yielded an IC50 (EGFR (L858R T790M C797S); [2]) of under 15 nM and an IC50 [1] of over 50 nM.

Work on `CC(C)NC(=O)c1ncc(C(C)C)c2cc(Nc3ccnc(N4CC[C@@H](O)[C@@](C)(F)C4)n3)ncc12` [Example 69, 6-((2-((3S,4R)-3-fluoro-4-hydroxy-3-methylpiperidin-1-yl)pyrimidin-4-yl)amino)-N,4-diisopropyl-2,7-naphthyridine-1-carboxamide] yielded an IC50 (EGFR (L858R T790M C797S); [2]) of 20 to 30 nM and an IC50 [1] of over 50 nM.
